Tests used:
S. aureus mastitis = details: Oldham et al.; in words; cited from earlier work
S. aureus = assay: Potentiation of lysostaphin bactericidal activity (minimum bactericidal concentration assay, survival of S. aureus); format: cell-based, Staphylococcus aureus; details: 18 h
Description: Preparation of 50% glycerol and 15% poloxamer 407 NF plus lysostaphin is as follows: The lysostaphin stock of 2.5 mg/mL is thawed and filtered through a 0.22μ filter. [formula]
In a similar fashion, triacetin solutions are also prepared.
Mueller-Hinton Broth containing lysostaphin is prepared as above. Penicillin in Mueller-Hinton Broth is prepared to serve as a control. Starting with a frozen 2.5 mg/mL stock solution the penicillin is diluted as follows: 400 μl of 2.5 mg/mL is placed in 600 μl of Mueller-Hinton Broth to yield a 1000 μg/mL solution. Added to 3744 μl of Mueller-Hinton Broth is 256 μl of the 1000 μg/mL solution to yield a 64 μg/mL solution.
Placed in sterile tubes are 2 mL of the vehicle and lysostaphin; Mueller-Hinton Broth plus lysostaphin; and Mueller-Hinton Broth plus penicillin. Serial two-fold dilutions are performed by hand using 1 mL of the appropriate vehicle as the diluent. Lysostaphin and penicillin dilutions range from 64 μg/mL to 0.25 μg/mL. All combinations are done in duplicate. The Staphylococcus aureus is grown for 5 hours in 5 mL of TSB and 0.1 mL is removed and placed in 9.9 mL of saline. Each tube is inoculated with 100 μl of the diluted culture. Plate counts are performed on the inoculum. All tubes are incubated for 18 hours at 37° C. with constant agitation. Following incubation, each dilution of lysostaphin in the vehicles or Mueller-Hinton Broth and penicillin in Mueller-Hinton Broth is diluted in phosphate buffered saline to 10^-2, 10^-4 and 10^-6.
Plated on a TSA with 10% sheep blood is 100 μl of the undilute and of each dilution. The plates are inverted and incubated for 18 hours. Following incubation, the number of colonies on each plate is counted.
The vehicles which inhibit the growth or are moderately bactericidal to S. aureus by themselves are unable to be evaluated using the MIC procedure. For these vehicles a minimum bactericidal concentration assay (MBC) is performed. This assay in conjunction with the previous MIC data distinguish bacteriostatic effects versus bactericidal effects of the vehicles. Various formulations are mixed with lysostaphin at a final concentration of 32 μg/mL. Ten, serial two- or four-fold dilutions of the lysostaphin are performed in the vehicle and each tube inoculated with a 2-6 x's 106 S. aureus CFU's (bacterial colony-forming units). Samples are removed after 18 hours and plated on blood agar plates.

[1] = tested on: Staphylococcus aureus (Newbould 305); assay: Potentiation of lysostaphin bacteriostatic activity (minimum inhibitory concentration); format: cell-based; details: in saline, diluted in MHB
Description: Dissolved in 15% w/v poloxamer 407 NF is 512 μg/mL of lysostaphin by adding 487.4 μl of a 2.5 mg/mL aqueous solution to 1512.6 μl of the 15% w/v poloxamer 407 NF in sPBS. The lysostaphin is first filtered through a 0.22 μ filter and the concentration is adjusted (1.19 factor). The poloxamer 407 NF is mixed overnight and filtered through a 0.22μ cellulose acetate filter. In a similar fashion, preparations with other vehicles such as lysostaphin in triacetin are prepared.
Lysostaphin in Mueller-Hinton Broth is run as a control and a 512 μg/mL solution is prepared from the same 2.5 mg/mL solution as the poloxamer 407 NF mixture. Placed in 189 μl of Mueller-Hinton Broth is 61 μl of the 2.5 mg/mL solution.
Placed in the first well of a 12 well row is 100 μl of each mixture and serial two-fold dilutions are performed in Mueller-Hinton Broth through row 12. Following dilution, 50 μl of inoculum is added to each well. Inoculum is prepared by inoculating a tube of trypticase soy broth (TSB) from an overnight trypticase soy agar (TSA) culture containing a 10% sheep blood plate of Staphylococcus aureus (Newbould 305). The tube is incubated for 5 hours at 37° C. with constant agitation. […]
The inhibitory profile as measured by the reduction of the optical density at 650 nm in the presence of the vehicle is then compared to that of lysostaphin diluted in Mueller-Hinton Broth. […]

[2] = tested on: P388.D1 (Macrophage tumor cell line); assay: in vitro; format: cell-based, murine
Description: (§1) Cell Lines: A20: B-cell tumor cell line 9C127: T-cell hybridoma cell line LB/62287: B-cell lymphoma cell line P388.D1: Macrophage tumor cell line
(§2) Cell lines (1×10^5 /well; >85% viability) are cultured in 24 well flat bottom plates in RPMI® medium (Gibco Laboratories, Grand Island, N.Y.) supplemented with 10% fetal calf serum, streptomycin (100 μg/mL) and penicillin (100 U/mL). Cultures are incubated (37° C., 10% CO2) with the following concentrations of vehicles:
(§3) c) 1.0%, 0.1% or 0.01% Triacetin or IMWITOR®
(§4) After a 72 hour or 6 hour incubation period, cells are harvested and counted by the Coulter Counter (Northwell Drive, England). Cell viability is determined using a Coulter Channelyzer.
(§5) The relative toxicity of the sample formulations to estimate the relative degree of toxicity for in vivo administration is carried out in vitro with the mammalian cell lines. Various concentrations of the vehicles are incubated for either 6 or 24 hours with the different mammalian cell lines. Immediate toxicity is evaluated at 6 hours by quantitating the number of dead cells in treated wells as compared to the untreated controls. Long term toxicity effects as well as effects which may inhibit cell growth are evaluated by measuring the relative degree of proliferation after an additional 48 hours incubation with ^3 H-thymidine.

[3] = tested on: A20 (B-cell tumor cell line); assay: Toxicity of formulations on mammalian cell lines (cell viability, Coulter); format: cell-based, murine
Description: as §1, §2, §3, §4, §5

[4] = tested on: 9C127 (T-cell hybridoma cell line); assay: as above; format: cell-based, murine
Description: as §1, §2, §3, §4, §5

[5] = lysostaphin (or penicillin) 1 μg/mL
[6] = lysostaphin (or penicillin) 4 μg/mL

Row | Substance | Therapeutic efficacy compared with CEFA-LAK (S. aureus mastitis) | Survival of S. aureus CFU (Log 10) in Vehicles (S. aureus; lysostaphin 0.25 μg/mL) | Killing of S. aureus (footnote class) (S. aureus; lysostaphin 2 μg/mL) | Survival of S. aureus CFU (Log 10) in Vehicles (S. aureus; lysostaphin 2 μg/mL) | Killing of S. aureus (footnote class) (S. aureus; lysostaphin 8 μg/mL) | Survival of S. aureus CFU (Log 10) in Vehicles (S. aureus; lysostaphin (or penicillin) 0.5 μg/mL) | Killing of S. aureus (footnote class) (S. aureus; [5]) | Survival of S. aureus CFU (Log 10) in Vehicles (S. aureus; [5]) | Killing of S. aureus (footnote class) (S. aureus; [6]) | Survival of S. aureus CFU (Log 10) in Vehicles (S. aureus; [6]) | Survival of S. aureus CFU (Log 10) in Vehicles (S. aureus; lysostaphin (or penicillin) 8 μg/mL) | Control MIC of lysostaphin ([1]; control of the PLURONIC F127 line) | Control MIC of lysostaphin ([1]; control of the triacetin line) | Relative Toxicity at 6 Hours [2] | Relative Toxicity at 6 Hours [3] | Relative Toxicity at 6 Hours [4]
1 | Lysostaphin: gene product of Staphylococcus simulans, enzymatically degrading the polyglycine crosslinks of the cell wall | not equivalent to the commercially available product CEFA-LAK® | 9.7 CFU (Log 10) | ^3 (Greater than 99.99% killing of S. aureus) | 3.6 CFU (Log 10) | ^3 (Greater than 99.99% killing of S. aureus) | 8.6 CFU (Log 10) | ^2 (Greater than 95% killing of S. aureus) | 8.1 CFU (Log 10) | ^3 (Greater than 99.99% killing of S. aureus) | 4.8 CFU (Log 10) | 3.3 CFU (Log 10) | 0.125 | 1.0 |  |  | 
2 | PLURONIC ® F 127 |  |  |  |  |  |  |  |  |  |  |  |  |  | - | - | -
